Measured values published in US12331051B2 (priority 2021, dated 2025).

Assays:
[1] = target: T1, Serotonin 7 receptor (5-HT7R) (Homo sapiens, UniProt P34969); test: Radioligand binding, cell membrane homogenates
T1 construct: expressed in transfected cells; host or cells: HEK-293
Description: (§1) Neuro-receptor binding and functional effects of the “E559 polymorph” was examined by analyzing binding affinity [Ki (nM)], functional agonist activity [EC50 (nM)], and functional antagonist activity [IC50 (nM)] against a panel of key receptors in neurophysiological disorders. Binding and functional assays were performed at “E559 polymorph” concentrations of 0.0003, 0.003, 0.01, 0.03, 0.1, 0.3, 1, and 10 μM. In binding assays, cell membrane homogenates, expressing each receptor target, were incubated with the corresponding radio-ligand in absence or presence of several concentration of the “E559 polymorph” compound. The measurement of binding affinity of the “E559 polymorph” is represented in TABLE XIII by Ki (nM) which was calculated as percent inhibition of the binding of a radioactively labeled reference ligand at each receptor. In functional assays the HEK-293 cells expressing each receptor target were suspended in buffer and distribute in microplates and incubated for 30 minutes at room temperature or 37° C. in the presence of buffer alone (basal control), the reference agonist or antagonist, or the “E559 polymorph. Following incubation, the cells were lysed and the appropriate fluorescent probe (Ca2+ flux, cAMP, or IP1) were added for 60 minutes to measure the fluorescence transfer at the appropriate wavelength using a microplate reader. The cellular agonist effect (EC50) was calculated as a percent of control response to a known reference agonist and the cellular antagonist effect (IC50) was calculated as a percent inhibition of control reference agonist response for each receptor.

[2] = target: T2, Beta 2 adrenergic receptor (Homo sapiens, UniProt P07550); test: Radioligand binding, cell membrane homogenates
T2 construct: expressed in transfected cells; host or cells: HEK-293
T2 sequence (P07550 whole entry): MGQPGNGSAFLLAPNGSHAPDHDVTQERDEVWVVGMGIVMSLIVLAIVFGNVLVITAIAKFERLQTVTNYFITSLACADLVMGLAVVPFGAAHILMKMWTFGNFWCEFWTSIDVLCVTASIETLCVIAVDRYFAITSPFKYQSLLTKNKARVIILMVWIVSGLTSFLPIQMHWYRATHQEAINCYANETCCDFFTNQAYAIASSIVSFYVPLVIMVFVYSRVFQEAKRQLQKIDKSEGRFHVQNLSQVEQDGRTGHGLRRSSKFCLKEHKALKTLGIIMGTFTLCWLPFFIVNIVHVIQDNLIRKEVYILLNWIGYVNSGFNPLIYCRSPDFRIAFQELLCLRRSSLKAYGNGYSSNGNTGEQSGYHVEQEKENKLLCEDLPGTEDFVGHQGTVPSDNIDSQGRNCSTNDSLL
Description: as §1

[3] = target: T3, 5-HT2A receptor (5-HT2AR) (Homo sapiens, UniProt P28223); test: Radioligand binding, cell membrane homogenates
T3 construct: expressed in transfected cells; host or cells: HEK-293
T3 sequence (P28223 whole entry): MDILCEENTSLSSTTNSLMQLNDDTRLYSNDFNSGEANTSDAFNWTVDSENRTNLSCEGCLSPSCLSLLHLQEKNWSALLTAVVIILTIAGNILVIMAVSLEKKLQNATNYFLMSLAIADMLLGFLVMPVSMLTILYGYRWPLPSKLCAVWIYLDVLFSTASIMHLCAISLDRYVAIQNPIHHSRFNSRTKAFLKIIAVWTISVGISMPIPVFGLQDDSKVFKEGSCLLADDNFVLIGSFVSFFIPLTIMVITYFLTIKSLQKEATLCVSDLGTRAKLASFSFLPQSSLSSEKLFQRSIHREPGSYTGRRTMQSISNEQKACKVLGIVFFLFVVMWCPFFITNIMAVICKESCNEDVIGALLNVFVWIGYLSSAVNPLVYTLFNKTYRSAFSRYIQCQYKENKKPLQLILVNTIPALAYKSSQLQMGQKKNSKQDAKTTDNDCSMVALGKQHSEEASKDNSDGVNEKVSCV
Description: as §1

[4] = target: T4, Alpha 2A adrenergic receptor (Homo sapiens, UniProt P08913); test: Radioligand binding, cell membrane homogenates
T4 construct: expressed in transfected cells; host or cells: HEK-293
T4 sequence (P08913 1-465): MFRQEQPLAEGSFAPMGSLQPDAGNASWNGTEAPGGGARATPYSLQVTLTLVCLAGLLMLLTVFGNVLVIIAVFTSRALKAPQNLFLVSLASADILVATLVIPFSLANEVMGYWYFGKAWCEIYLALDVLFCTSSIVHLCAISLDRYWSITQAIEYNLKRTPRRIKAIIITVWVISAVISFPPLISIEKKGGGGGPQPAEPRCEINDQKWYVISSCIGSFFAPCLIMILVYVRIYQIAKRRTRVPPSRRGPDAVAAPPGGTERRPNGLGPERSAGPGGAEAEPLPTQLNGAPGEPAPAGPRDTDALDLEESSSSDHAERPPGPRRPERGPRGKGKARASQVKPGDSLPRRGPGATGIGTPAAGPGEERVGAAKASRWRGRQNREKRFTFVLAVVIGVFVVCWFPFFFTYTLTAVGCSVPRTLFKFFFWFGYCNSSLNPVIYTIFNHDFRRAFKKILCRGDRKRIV
Description: as §1

[5] = target: T5, Serotonin 2C receptor (5-HT2CR) (Homo sapiens, UniProt P28335); test: Radioligand binding, cell membrane homogenates
T5 construct: expressed in transfected cells; host or cells: HEK-293
T5 sequence (P28335 33-458): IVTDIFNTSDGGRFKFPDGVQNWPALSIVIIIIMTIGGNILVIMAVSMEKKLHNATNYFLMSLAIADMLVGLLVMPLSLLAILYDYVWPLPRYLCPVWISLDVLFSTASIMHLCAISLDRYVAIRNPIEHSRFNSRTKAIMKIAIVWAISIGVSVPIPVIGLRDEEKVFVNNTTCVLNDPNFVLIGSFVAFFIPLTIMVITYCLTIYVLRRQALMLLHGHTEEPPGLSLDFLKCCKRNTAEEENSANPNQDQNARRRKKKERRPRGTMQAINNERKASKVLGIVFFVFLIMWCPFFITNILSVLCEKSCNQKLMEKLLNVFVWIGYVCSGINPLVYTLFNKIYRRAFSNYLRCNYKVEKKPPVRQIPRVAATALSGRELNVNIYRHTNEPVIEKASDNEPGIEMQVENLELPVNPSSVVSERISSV
Description: as §1

[6] = target: T6, Serotonin 1A receptor (5-HT1AR) (Homo sapiens, UniProt P08908); test: Radioligand binding, cell membrane homogenates
T6 construct: expressed in transfected cells; host or cells: HEK-293
T6 sequence (P08908 1-422): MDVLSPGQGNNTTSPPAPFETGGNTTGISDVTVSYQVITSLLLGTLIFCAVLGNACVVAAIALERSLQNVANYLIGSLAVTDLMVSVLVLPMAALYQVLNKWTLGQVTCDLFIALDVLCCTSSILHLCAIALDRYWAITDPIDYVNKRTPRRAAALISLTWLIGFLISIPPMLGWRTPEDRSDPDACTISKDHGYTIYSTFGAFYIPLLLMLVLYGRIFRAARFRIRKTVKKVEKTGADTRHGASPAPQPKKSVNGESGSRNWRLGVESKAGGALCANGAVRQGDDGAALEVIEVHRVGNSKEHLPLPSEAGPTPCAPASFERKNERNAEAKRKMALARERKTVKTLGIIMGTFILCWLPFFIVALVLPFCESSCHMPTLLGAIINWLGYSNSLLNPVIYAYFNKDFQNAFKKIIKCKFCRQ
Description: as §1

[7] = target: T7, Serotonin 2B receptor (5-HT2BR) (Homo sapiens, UniProt P41595); test: Radioligand binding, cell membrane homogenates
T7 construct: expressed in transfected cells; host or cells: HEK-293
T7 sequence (P41595 whole entry): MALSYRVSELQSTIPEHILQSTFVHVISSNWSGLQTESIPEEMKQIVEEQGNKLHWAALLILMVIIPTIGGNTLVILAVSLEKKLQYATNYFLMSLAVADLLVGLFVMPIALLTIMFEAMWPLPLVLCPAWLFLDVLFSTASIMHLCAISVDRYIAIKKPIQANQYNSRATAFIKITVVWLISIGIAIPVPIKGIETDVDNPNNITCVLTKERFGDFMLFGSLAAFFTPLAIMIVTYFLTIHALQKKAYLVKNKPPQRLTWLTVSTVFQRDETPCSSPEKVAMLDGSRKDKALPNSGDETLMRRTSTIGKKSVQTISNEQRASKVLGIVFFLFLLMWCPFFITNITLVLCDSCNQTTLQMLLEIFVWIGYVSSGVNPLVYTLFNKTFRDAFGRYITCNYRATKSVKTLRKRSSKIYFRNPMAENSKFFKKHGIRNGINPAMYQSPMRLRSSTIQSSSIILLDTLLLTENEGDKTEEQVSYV
Description: as §1

[8] = target: T8, Alpha 1A adrenergic receptor (Homo sapiens, UniProt P35348); test: Functional assay in HEK-293 cells (Ca2+ flux); format: cell-based
T8 construct: expressed in transfected cells; host or cells: HEK-293
T8 sequence (P35348 1-466): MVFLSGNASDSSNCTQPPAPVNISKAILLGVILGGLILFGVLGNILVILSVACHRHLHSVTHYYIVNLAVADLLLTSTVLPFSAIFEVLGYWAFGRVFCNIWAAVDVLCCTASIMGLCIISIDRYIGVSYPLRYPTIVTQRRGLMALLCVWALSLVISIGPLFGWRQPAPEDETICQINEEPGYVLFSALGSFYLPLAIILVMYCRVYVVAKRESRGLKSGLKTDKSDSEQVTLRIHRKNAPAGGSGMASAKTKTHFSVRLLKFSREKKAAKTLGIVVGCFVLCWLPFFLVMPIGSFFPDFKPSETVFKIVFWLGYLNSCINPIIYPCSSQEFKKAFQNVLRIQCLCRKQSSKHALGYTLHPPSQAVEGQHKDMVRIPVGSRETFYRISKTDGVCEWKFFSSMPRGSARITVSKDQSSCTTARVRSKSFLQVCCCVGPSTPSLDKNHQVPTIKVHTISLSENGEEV
Description: as §1

[9] = target: T4, Alpha 2A adrenergic receptor; test: Functional assay in HEK-293 cells (Ca2+ flux); format: cell-based
Description: as §1

[10] = target: T6, Serotonin 1A receptor (5-HT1AR); test: Functional assay in HEK-293 cells (Ca2+ flux); format: cell-based
Description: as §1

T1 sequence (P34969 whole entry): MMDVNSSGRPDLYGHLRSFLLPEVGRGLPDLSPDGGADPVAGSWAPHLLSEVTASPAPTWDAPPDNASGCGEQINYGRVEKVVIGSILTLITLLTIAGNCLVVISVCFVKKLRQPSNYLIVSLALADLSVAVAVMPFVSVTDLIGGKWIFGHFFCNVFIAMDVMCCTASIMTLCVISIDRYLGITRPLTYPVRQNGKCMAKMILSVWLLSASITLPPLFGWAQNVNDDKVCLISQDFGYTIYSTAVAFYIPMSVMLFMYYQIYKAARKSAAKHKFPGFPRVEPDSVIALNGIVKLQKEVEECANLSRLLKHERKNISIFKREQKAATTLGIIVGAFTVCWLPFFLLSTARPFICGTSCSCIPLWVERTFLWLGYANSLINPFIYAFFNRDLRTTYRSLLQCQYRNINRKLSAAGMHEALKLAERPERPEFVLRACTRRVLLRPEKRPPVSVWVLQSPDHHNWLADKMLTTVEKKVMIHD

Compound: CCN(CC)C(=O)[C@@H]1C=C2c3cccc4[nH]c(Br)c(c34)C[C@H]2N(C)C1 [E559, (5R, 8R)-2-Bromo-9,10-didehydro-N,N-diethyl-6-methylergoline-8-carboxamide hemi-D-tartrate]
- Ki [1]: 3.81 nM
- Ki [2]: 88 nM
- Ki [3]: 2.2 nM
- Ki [4]: 10.3 nM
- Ki [5]: 19 nM
- Ki [6]: 9.3 nM
- Ki [7]: 7 nM
- EC50 [8]: 51 nM
- IC50 [8]: > 10000 nM
- EC50 [9]: > 10000 nM
- IC50 [9]: 260 nM
- EC50 [10]: 3000 nM
- IC50 [10]: > 10000 nM
